Measurements published in patent US20230265405A1, “ENGINEERED NUCLEASES AND METHODS OF USE THEREOF” (Massachusetts Institute of Technology, priority 2022, published 2023).
Like-named read-outs stand apart in the source and are kept apart here.

Assays:
Type in all cases: cell-based, human
[1] = system: several loci in HEK293T cells; assay: Prime editing with pegRNAs without nicking gRNAs (single-nicking, PE2) at several loci, deep sequencing; details: for indel frequencies: all loci; for precise editing frequencies (mean): mean across several loci; for precise editing frequencies: range across several loci
Method: Considering this broad suppression of all indel types, we also studied whether vPE reduced indel frequency at several loci in HEK293T cells using pegRNAs without nicking gRNAs (single-nicking prime editing, or PE2).
(§1) Cells were seeded in the maintenance medium without Pen-Strep into 24-well plates at 100,000 cells/well or 48-well plates at 50,000 cells/well. […] Transfections of HEK293T with prime editing vectors were carried out 24 hrs after seeding using 475 ng PE expression vector, 114 ng pegRNA expression vector, and 144 ng nicking gRNA expression vector (for PE3) formulated with 1.47-1.83 μL (equal volume/DNA) Lipofectamine 2000 at a total volume of 58.9-73.3 μL (equal DNA concentration) in OptiMEM I (ThermoFisher) per well for 24-well plates, or half these volumes for 48-well plates. For sequencing assays, genomic DNA was extracted 72 hrs after transfection using QuickExtract (Epicentre). For flow cytometry assays, cells were transferred to 6-well plates 72 hrs after transfection, split 7 days after transfection, and harvested 10 days after transfection in PBS with 5% FBS (ThermoFisher). Repair templates, listed in Supplementary Table 4, were synthesized by IDT.
(§2) The targeted loci were amplified from extracted genomic DNA by PCR using Herculase II polymerase (Agilent). The PCR primers included Illumina sequencing handles as well as replicate-specific barcodes. These PCR products were then tagged with sample-specific barcodes and sequenced on an Illumina MiSeq. Primers, listed in Supplementary Table 5, were synthesized by IDT.
(§3) To measure editing outcomes, the high-throughput sequencing data were analyzed using CRISPResso2 25. Total editing rates were quantified as the fraction of edited reads out of total sequencing reads. Indel rates were quantified as the fraction of reads containing indels out of total sequencing reads. Precise editing rates were quantified as the fraction of reads containing a perfect match to the expected edit out of total sequencing reads. Frequencies of specific indel sizes were quantified as the fraction of reads containing these sizes out of all edited reads. Depletion of specific indel sizes by templated repair was quantified as the fractional reduction in the frequency of that indel size, comparing frequencies for when a template was present versus absent. Mean indel sizes were calculated as the mean of the absolute values of indel sizes weighted by their indel fractions.

[2] = system: several loci in HEK293T cells; assay: Prime editing with pegRNAs and nicking gRNAs (double-nicking, PE3) at several loci, deep sequencing; details: for precise editing frequencies (mean): mean across several loci; for precise editing frequencies: range across several loci
Method: We compared PEmax and PE for creating small edits at the EMX1, GFP, KRAS, and MYC loci in HEK293T cells.
(§4) We next examined whether vPE produces precise editing by again applying prime editing to convert a GFP transgene to BFP. […] As prime editors can produce indels without the prime edit, with the prime edit, or with the prime edit and pegRNA scaffold incorporation (Chen et al. Cell 184, 5635-5652.e29 (2021)), we further determined how these different indel types were affected.
as §1, §2, §3

[3] = system: GFP transgene; assay: Prime editing GFP to BFP conversion with pegRNA and nicking gRNA, flow cytometry
Description: (§5) We tested these engineered variants by applying prime editing with a pegRNA and nicking gRNA to convert a GFP transgene to BFP, similar to the HDR assay.
as §4
Flow cytometry analysis was performed on an LSR Fortessa analyzer and data was collected using FACSDiva (BD Biosciences). Cells were first gated comparing SSC-A and FSC-A, then SSC-H and SSC-W, then FSC-H and FSC-W parameters to select for single cells. To assess editing frequencies, cells were gated for GFP (488 nm laser excitation, 530/30 nm filter detection) and BFP (405 nm laser excitation, 450/50 nm filter detection). To profile cell cycle stage, cells were gated for propidium iodide (561 nm laser excitation, 610/20 nm filter detection) and Alexa Fluor 647 (640 nm laser excitation, 670/30 nm filter detection). Flow cytometry data were analyzed using FlowJo (FlowJo).

[4] = system: KRAS locus in HEK293T cells; assay: Prime editor variant screen with pegRNA and nicking gRNA (PE3), deep sequencing
Method: To measure precise editing and indel frequencies for these mutants, we combined them with a pegRNA and nicking gRNA (double-nicking prime editing, or PE3) that produces a small sequence replacement at the KRAS locus in HEK293T cells by prime editing and analyzed alterations using deep sequencing of the amplified locus.
as §5
as §1, with “Repair templates, listed in Supplementary Table 4, were synthesized by IDT.” left out

[5] = vPE versus PE, range across loci

| Substance | indel frequencies [1] | precise editing frequencies (mean) [1] | precise editing frequencies [1] | precise editing frequencies (mean) [2] | precise editing frequencies [2] | indels and precise editing, GFP to BFP conversion [3] | indels and precise editing, GFP to BFP conversion ([3]; listed as K848A-H982A) | indel types [1] | suppression of indel frequency (mean) ([1]; vPE versus PE, mean) | suppression of indel frequency [1, 5] | precision, rank among PE variants [4] | precise editing frequency and indel frequency relative to PE ([4]; dual-mutation variants, KRAS locus) | indels resulting from prime editing ([2]; all loci) | frequencies of each indel type ([2]; indels without prime edit, with prime edit, with pegRNA scaffold incorporation) | suppression of indel frequency (mean) ([2]; vPE versus PE, mean) | suppression of indel frequency [2, 5] |
| --- | --- | --- | --- | --- | --- | --- | --- | --- | --- | --- | --- | --- | --- | --- | --- | --- |
| PE: Prime editor: variant of PEmax with the R221K and N394K mutations reverted; SEQ ID NO: 293 (nucleic acid 286) | fairly low indel frequencies | 82.7% | 72.3-98.2% | 49.1% | 14.7-69.8% | – | – | – | – | – | – | – | – | – | – | – |
| vPE: PE prime editor with K848A-H982A in the Cas9 nickase, SEQ ID NO: 294 | lower indel frequencies | 90.5% | 84.2-98.4% | 82.5% | 57.7-97.4% | efficient precise gene conversion with limited indels | nearly eliminated indels while promoting precise editing | reductions in all indel types | 1.7 fold | 1.1- to 2.5 fold | most precise variant | increased precise editing frequency and reduced indel frequency | nearly eliminated indels | decreasing the frequencies of each indel type | 4.7 fold | 2.0- to 13.0 fold |
